Laboratory results taken from the supplement of paper PMC13207355.

Key:
Conditions in all cases: exposure time: 72 h
E28 [1] = patient-derived glioblastoma stem cells of classical subtype; experiment: phenotypic distance (Euclidean, principal components) from DMSO controls (arbitrary units); higher = stronger morphological change
E13 [2] = patient-derived glioblastoma stem cells of classical subtype; experiment: as above
FT3469 [3] = normal neural stem cell line; experiment: as above
E34 [4] = patient-derived glioblastoma stem cells of proneural subtype; experiment: as above
E31 [5] = patient-derived glioblastoma stem cells of proneural subtype; experiment: as above
E57 [6] = patient-derived glioblastoma stem cells of mesenchymal subtype; experiment: as above
E21 [7] = patient-derived glioblastoma stem cells of mesenchymal subtype; experiment: as above
E28 [8] = experiment: surviving fraction (nuclei count normalised to DMSO); higher = more cells surviving (less toxic)
E13 [9] = experiment: as above
FT3469 [10] = experiment: as above
E34 [11] = experiment: as above
E31 [12] = experiment: as above
E57 [13] = experiment: as above
E21 [14] = experiment: as above
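Wherever phenotypic distance (Euclidean, principal components) from DMSO controls is given: cell Painting imaging in 384-well plates, CellProfiler features reduced to at least 20 principal components, Euclidean distance versus same-plate DMSO vehicle wells (0.1% v/v), median over six images per well.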
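Wherever surviving fraction (nuclei count normalised to DMSO) is given: nuclei counted by high-content imaging of Hoechst-stained cells in laminin-coated 384-well plates, relative to 0.1% DMSO vehicle wells, with staurosporine as cell-death control.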

COc1cc(N)c(Cl)cc1C(=O)NC1CCN(CCCOc2ccc(F)cc2)CC1OC (stereo not drawn) [Cisapride]
Conditions | phenotypic distance | surviving fraction
E13 [2], 4.1 nM | 0.873 | –
E13 [2], 12.3 nM | 0.288 | –
E13 [2], 37 nM | 0.382 | –
E13 [2], 111.1 nM | 0.383 | –
E13 [2], 333.3 nM | 0.399 | –
E13 [2], 1000 nM | 0.304 | –
E13 [2], 3000 nM | 0.549 | –
E13 [9], 4.1 nM | – | 1.06
E13 [9], 12.3 nM | – | 0.908
E13 [9], 37 nM | – | 0.927
E13 [9], 111.1 nM | – | 1
E13 [9], 333.3 nM | – | 0.996
E13 [9], 1000 nM | – | 0.958
E13 [9], 3000 nM | – | 0.907
E21 [7], 4.1 nM | 0.524 | –
E21 [7], 12.3 nM | 0.638 | –
E21 [7], 37 nM | 0.752 | –
E21 [7], 111.1 nM | 0.754 | –
E21 [7], 333.3 nM | 0.818 | –
E21 [7], 1000 nM | 0.872 | –
E21 [7], 3000 nM | 1.14 | –
E21 [14], 4.1 nM | – | 1.04
E21 [14], 12.3 nM | – | 1.03
E21 [14], 37 nM | – | 0.956
E21 [14], 111.1 nM | – | 1.08
E21 [14], 333.3 nM | – | 0.888
E21 [14], 1000 nM | – | 0.863
E21 [14], 3000 nM | – | 0.846
E28 [1], 4.1 nM | 0.867 | –
E28 [1], 12.3 nM | 0.592 | –
E28 [1], 37 nM | 0.923 | –
E28 [1], 111.1 nM | 0.547 | –
E28 [1], 333.3 nM | 1.1 | –
E28 [1], 1000 nM | 0.901 | –
E28 [1], 3000 nM | 1.01 | –
E28 [8], 4.1 nM | – | 1.05
E28 [8], 12.3 nM | – | 1.04
E28 [8], 37 nM | – | 1.14
E28 [8], 111.1 nM | – | 0.921
E28 [8], 333.3 nM | – | 1.09
E28 [8], 1000 nM | – | 0.963
E28 [8], 3000 nM | – | 0.844
E31 [5], 4.1 nM | 0.443 | –
E31 [5], 12.3 nM | 0.553 | –
E31 [5], 37 nM | 0.533 | –
E31 [5], 111.1 nM | 0.657 | –
E31 [5], 333.3 nM | 0.557 | –
E31 [5], 1000 nM | 0.668 | –
E31 [5], 3000 nM | 0.804 | –
E31 [12], 4.1 nM | – | 1.04
E31 [12], 12.3 nM | – | 1.01
E31 [12], 37 nM | – | 0.895
E31 [12], 111.1 nM | – | 1
E31 [12], 333.3 nM | – | 1.01
E31 [12], 1000 nM | – | 0.972
E31 [12], 3000 nM | – | 0.67
E34 [4], 4.1 nM | 0.74 | –
E34 [4], 12.3 nM | 0.611 | –
E34 [4], 37 nM | 0.666 | –
E34 [4], 111.1 nM | 0.904 | –
E34 [4], 333.3 nM | 0.986 | –
E34 [4], 1000 nM | 0.415 | –
E34 [4], 3000 nM | 0.914 | –
E34 [11], 4.1 nM | – | 1.06
E34 [11], 12.3 nM | – | 1.13
E34 [11], 37 nM | – | 0.945
E34 [11], 111.1 nM | – | 0.906
E34 [11], 333.3 nM | – | 1.02
E34 [11], 1000 nM | – | 0.971
E34 [11], 3000 nM | – | 1.06
E57 [6], 4.1 nM | 0.385 | –
E57 [6], 12.3 nM | 0.606 | –
E57 [6], 37 nM | 0.667 | –
E57 [6], 111.1 nM | 0.47 | –
E57 [6], 333.3 nM | 0.668 | –
E57 [6], 1000 nM | 0.946 | –
E57 [6], 3000 nM | 0.645 | –
E57 [13], 4.1 nM | – | 0.957
E57 [13], 12.3 nM | – | 0.903
E57 [13], 37 nM | – | 1.05
E57 [13], 111.1 nM | – | 1.07
E57 [13], 333.3 nM | – | 0.967
E57 [13], 1000 nM | – | 1.04
E57 [13], 3000 nM | – | 0.918
FT3469 [3], 4.1 nM | 1.16 | –
FT3469 [3], 12.3 nM | 0.775 | –
FT3469 [3], 37 nM | 1.12 | –
FT3469 [3], 111.1 nM | 2.83 | –
FT3469 [3], 333.3 nM | 0.576 | –
FT3469 [3], 1000 nM | 1.05 | –
FT3469 [3], 3000 nM | 0.797 | –
FT3469 [10], 4.1 nM | – | 0.931
FT3469 [10], 12.3 nM | – | 1.1
FT3469 [10], 37 nM | – | 0.992
FT3469 [10], 111.1 nM | – | 1.06
FT3469 [10], 333.3 nM | – | 0.891
FT3469 [10], 1000 nM | – | 1.2
FT3469 [10], 3000 nM | – | 0.907
